Results published in patent US9328112B2, “Tetracyclic CDK9 kinase inhibitors” (AbbVie Inc., priority 2014, dated 2016).

Tests used:
CDK9/Cyclin T1 = CDK9/Cyclin T1 (Homo sapiens (Human), UniProt P50750); assay: CDK9 enzyme assay (LANCE ULight TR-FRET kinase assay); assay type: biochemical; conditions: 1000 μM ATP, 100 nM ULight MBP, kinase reaction 1 hour
Outline: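 TR-FRET readout (ex 320 nm; em 615/665 nm) after 1 h detection with 0.5 nM europium anti-phospho-MBP antibody in 20 mM EDTA stop buffer. Preceding 1 h kinase step: CDK9/Cyclin T1, ULight-MBP substrate at 100 nM, ATP at 1000 μM, compound pre-diluted in DMSO then buffer.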

H929 cells = assay: Cell viability assay (Cell TiterGlo); assay type: cell-based; conditions: Cell TiterGlo luminescence
Method: The cell viability assay was performed using H929 cells. Cells were seeded in 96-well plates at 10,000 cells/well and, after overnight incubation, treated with compounds in a dose response of 3-fold dilutions from 10 μM to 0.005 μM ([…], 0.1% final DMSO concentration). After 24 hours at 37° C., cell viability was measured using Cell TiterGlo reagent (Promega) with a luminescence reader.

[1] = Homo sapiens, NCI-H929, 24 hours at 37° C.

CDK9/Cyclin T1, sequence (P50750 whole entry): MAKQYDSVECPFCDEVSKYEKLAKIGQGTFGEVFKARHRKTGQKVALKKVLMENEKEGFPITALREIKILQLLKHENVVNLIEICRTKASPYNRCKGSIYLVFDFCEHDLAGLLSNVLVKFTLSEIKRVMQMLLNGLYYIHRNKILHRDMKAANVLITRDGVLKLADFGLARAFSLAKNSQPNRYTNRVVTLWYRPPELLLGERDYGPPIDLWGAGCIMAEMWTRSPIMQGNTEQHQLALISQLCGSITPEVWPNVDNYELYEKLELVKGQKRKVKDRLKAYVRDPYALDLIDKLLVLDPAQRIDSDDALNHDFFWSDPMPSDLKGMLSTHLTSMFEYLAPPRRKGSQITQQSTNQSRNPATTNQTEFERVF
CDK9/Cyclin T1, sequence (O60563 whole entry partner): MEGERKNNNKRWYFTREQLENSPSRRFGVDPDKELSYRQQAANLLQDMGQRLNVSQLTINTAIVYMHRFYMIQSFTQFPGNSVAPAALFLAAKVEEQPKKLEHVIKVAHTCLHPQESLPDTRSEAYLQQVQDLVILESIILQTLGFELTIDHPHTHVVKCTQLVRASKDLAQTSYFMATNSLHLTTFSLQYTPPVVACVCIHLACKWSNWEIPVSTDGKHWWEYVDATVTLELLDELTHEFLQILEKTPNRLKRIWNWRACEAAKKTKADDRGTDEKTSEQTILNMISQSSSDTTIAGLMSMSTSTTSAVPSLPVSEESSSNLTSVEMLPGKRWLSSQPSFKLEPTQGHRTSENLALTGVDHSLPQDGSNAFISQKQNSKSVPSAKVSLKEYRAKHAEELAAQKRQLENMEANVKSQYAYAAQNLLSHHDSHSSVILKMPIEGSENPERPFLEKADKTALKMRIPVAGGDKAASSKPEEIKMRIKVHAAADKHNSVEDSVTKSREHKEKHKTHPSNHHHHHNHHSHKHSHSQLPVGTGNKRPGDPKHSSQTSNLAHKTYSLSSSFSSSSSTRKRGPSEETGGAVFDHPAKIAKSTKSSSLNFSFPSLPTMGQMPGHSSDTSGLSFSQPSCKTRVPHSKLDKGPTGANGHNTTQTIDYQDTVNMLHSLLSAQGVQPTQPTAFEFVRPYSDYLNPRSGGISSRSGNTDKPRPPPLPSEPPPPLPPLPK

| Compound | IC50 (CDK9/Cyclin T1) | IC50 (H929 cells; [1]) | IC50 (H929 cells; 24 hours at 37° C.) |
| --- | --- | --- | --- |
| CN1Cc2c(C3=CCCN(S(C)(=O)=O)C3)[nH]c3nccc(c23)-c2cc(F)ccc21 [Example 95, 10-fluoro-7-methyl-5-[1-(methylsulfonyl)-1,2,5,6-tetrahydropyridin-3-yl]-6,7-dihydro-4H-3,4,7-triazadibenzo[cd,f]azulene] | 130 nM | 1200 nM |  |
| COC(=O)C[C@H]1CC[C@@H](N2CC=C(c3[nH]c4nccc5c4c3CN(C)c3cc(F)c(F)cc3-5)CC2)CC1 [Example 134, methyl{cis-4-[4-(9,10-difluoro-7-methyl-6,7-dihydro-4H-3,4,7-triazadibenzo[cd,f]azulen-5-yl)-3,6-dihydropyridin-1(2H)-yl]cyclohexyl}acetate] | 47 nM | 310 nM |  |
| CN1CCc2c(C3=CCN([C@H]4C[C@@H](C(=O)O)C4)CC3)[nH]c3nccc(c23)-c2cc(F)ccc21 [Example 188, cis-3-[4-(8-fluoro-5-methyl-1,3,4,5-tetrahydro-1,5,12-triazabenzo[4,5]cycloocta[1,2,3-cd]inden-2-yl)-3,6-dihydropyridin-1(2H)-yl]cyclobutanecarboxylic acid] | 150 nM |  | 290 nM |
| CN1Cc2c(C3=CCCN(CC(=O)N4CC(O)C4)C3)[nH]c3nccc(c23)-c2cc(F)ccc21 [Example 121, 2-[5-(10-fluoro-7-methyl-6,7-dihydro-4H-3,4,7-triazadibenzo[cd,f]azulen-5-yl)-3,6-dihydropyridin-1(2H)-yl]-1-(3-hydroxyazetidin-1-yl)ethanone] | 160 nM | 1100 nM |  |
| CN1Cc2c(C3=C[C@H](CO)NCC3)[nH]c3nccc(c23)-c2cc(F)c(F)cc21 [Example 126, [(2R)-4-(9,10-difluoro-7-methyl-6,7-dihydro-4H-3,4,7-triazadibenzo[cd,f]azulen-5-yl)-1,2,5,6-tetrahydropyridin-2-yl]methanol] | 58 nM | 39 nM |  |
| COC(=O)C(C)=C1CCC(N2CC=C(c3[nH]c4nccc5c4c3CN(C)c3ccc(F)cc3-5)CC2)CC1 (stereo not shown) [Example 174, methyl 2-{4-[4-(10-fluoro-7-methyl-6,7-dihydro-4H-3,4,7-triazadibenzo[cd,f]azulen-5-yl)-3,6-dihydropyridin-1(2H)-yl]cyclohexylidene}propanoate] | 57 nM | 120 nM |  |
| CN1Cc2c(C3=CC4CN(CC(=O)N5CC(O)C5)CC4C3)[nH]c3nccc(c23)-c2cc(F)ccc21 (stereo not shown) [Example 84, 2-[5-(10-fluoro-7-methyl-6,7-dihydro-4H-3,4,7-triazadibenzo[cd,f]azulen-5-yl)-3,3a,4,6a-tetrahydrocyclopenta[c]pyrrol-2(1H)-yl]-1-(3-hydroxyazetidin-1-yl)ethanone] | 94 nM | 180 nM |  |
| CN1Cc2c(C3CCN(CC(=O)N4CCC[C@H]4CO)CC3)[nH]c3nccc(c23)-c2cc(F)ccc21 [Example 26, 2-[4-(10-fluoro-7-methyl-6,7-dihydro-4H-3,4,7-triazadibenzo[cd, f]azulen-5-yl)piperidin-1-yl]-1-[(2S)-2-(hydroxymethyl)pyrrolidin-1-yl]ethanone] | 93 nM | 150 nM |  |
| CN1Cc2c(C3=CCC(C(=O)O)CC3)[nH]c3nccc(c23)-c2cc(F)ccc21 (stereo not shown) [Example 41, 4-(10-fluoro-7-methyl-6,7-dihydro-4H-3,4,7-triazadibenzo[cd,f]azulen-5-yl)cyclohex-3-ene-1-carboxylic acid] | 150 nM | 1100 nM |  |
| CN(C)C(=O)CN1[C@H]2CC[C@@H]1C=C(c1[nH]c3nccc4c3c1CN(C)c1ccc(F)cc1-4)C2 [Example 55, 2-[(1R,5S)-3-(10-fluoro-7-methyl-6,7-dihydro-4H-3,4,7-triazadibenzo[cd,f]azulen-5-yl)-8-azabicyclo[3.2.1]oct-2-en-8-yl]-N,N-dimethylacetamide] | 160 nM | 150 nM |  |
| CN(CC(O)CO)C(=O)CN1CCC=C(c2[nH]c3nccc4c3c2CN(C)c2ccc(F)cc2-4)C1 (stereo not shown) [Example 123, N-(2,3-dihydroxypropyl)-2-[5-(10-fluoro-7-methyl-6,7-dihydro-4H-3,4,7-triazadibenzo[cd,f]azulen-5-yl)-3,6-dihydropyridin-1(2H)-yl]-N-methylacetamide] | 540 nM | 3100 nM |  |
| CN1Cc2c(C3=CCN(CC(=O)N4CC(O)C4)CC3(C)C)[nH]c3nccc(c23)-c2cc(F)ccc21 [Example 117, 2-[4-(10-fluoro-7-methyl-6,7-dihydro-4H-3,4,7-triazadibenzo[cd,f]azulen-5-yl)-3,3-dimethyl-3,6-dihydropyridin-1(2H)-yl]-1-(3-hydroxyazetidin-1-yl)ethanone] | 960 nM | 2400 nM |  |
| CN1Cc2c(-c3ccc(S(C)(=O)=O)cc3)[nH]c3nccc(c23)-c2cc(F)ccc21 [Example 43, 10-fluoro-7-methyl-5-[4-(methylsulfonyl)phenyl]-6,7-dihydro-4H-3,4,7-triazadibenzo[cd,f]azulene] | 66 nM | 230 nM |  |
| CN1Cc2c(C3=CCCN(CC(=O)N4CCC[C@H]4CO)C3)[nH]c3nccc(c23)-c2cc(F)ccc21 [Example 120, 2-[5-(10-fluoro-7-methyl-6,7-dihydro-4H-3,4,7-triazadibenzo[cd,f]azulen-5-yl)-3,6-dihydropyridin-1(2H)-yl]-1-[(2S)-2-(hydroxymethyl)pyrrolidin-1-yl]ethanone] | 480 nM | 2100 nM |  |
| CN(C)C(=O)CN1CC=C(c2[nH]c3ncc(F)c4c3c2CN(C)c2ccc(F)cc2-4)CC1 [Example 66, 2-[4-(1,10-difluoro-7-methyl-6,7-dihydro-4H-3,4,7-triazadibenzo[cd,f]azulen-5-yl)-3,6-dihydropyridin-1(2H)-yl]-N,N-dimethylacetamide] | 44 nM | 10 nM |  |
| CC[C@@H]1c2c(C3=CCNCC3)[nH]c3nccc(c23)-c2cc(F)ccc2N1C [Example 143, (6R)-6-ethyl-10-fluoro-7-methyl-5-(1,2,3,6-tetrahydropyridin-4-yl)-6,7-dihydro-4H-3,4,7-triazadibenzo[cd,f]azulene] | 417 nM | 582 nM |  |
| CN1Cc2c(C3=C[C@H]4CC[C@@H](C3)N4)[nH]c3nccc(c23)-c2cc(F)ccc21 [Example 62, 5-[(1R,5S)-8-azabicyclo[3.2.1]oct-2-en-3-yl]-10-fluoro-7-methyl-6,7-dihydro-4H-3,4,7-triazadibenzo[cd,f]azulene] | 46 nM | 150 nM |  |
| CN1Cc2c(C3=CCN(CCS(N)(=O)=O)CC3)[nH]c3nccc(c23)-c2cc(F)ccc21 [Example 179, 2-[4-(10-fluoro-7-methyl-6,7-dihydro-4H-3,4,7-triazadibenzo[cd,f]azulen-5-yl)-3,6-dihydropyridin-1(2H)-yl]ethanesulfonamide] | 24 nM | 64 nM |  |
| CS(=O)(=O)N1CC=C(c2[nH]c3nccc4c3c2CN(CC2CCOCC2)c2ccc(F)cc2-4)CC1 [Example 7, 10-fluoro-5-[1-(methylsulfonyl)-1,2,3,6-tetrahydropyridin-4-yl]-7-(tetrahydro-2H-pyran-4-ylmethyl)-6,7-dihydro-4H-3,4,7-triazadibenzo[cd,f]azulene] | 800 nM | 3300 nM |  |
| CN1Cc2c(C3=CC4CNCC4C3)[nH]c3nccc(c23)-c2cc(F)ccc21 (stereo not shown) [Example 59, 10-fluoro-5-(1,2,3,3a,4,6a-hexahydrocyclopenta[c]pyrrol-5-yl)-7-methyl-6,7-dihydro-4H-3,4,7-triazadibenzo[cd,f]azulene] | 88 nM | 190 nM |  |
